Test results: US11730712B2, “Functionalized long-chain hydrocarbon mono- and di-carboxylic acids and derivatives thereof, and their use for the prevention or treatment of disease” (ESPERVITA THERAPEUTICS, INC., priority 2021, dated 2023)
Several values for one entry are separate records, joined by “and”; a condition that tells them apart may be missing. Equal entries are not always repeated.

Assays:
[1] = Single and repeat dose plasma and tissue pharmacokinetics in male C57BL/6 mice; format: in vivo, mouse
Source text: Materials and methods. The study involved two arms; a single dose pharmacokinetic study and a 4-day repeated-dose pharmacokinetic study. For each arm, 56 inbred male C57BL/6 mice, aged at 6-7 week, were included. All animals were purchased from Charles River Lab (CRL, MA). Upon their arrival, they were kept in special-pathogen-free environment all the time. Briefly, they were housed in group on corncob bedding (ScottPharma, MA) in Innovive® caging system (Innovive, Calif.) on a 12-hour light-dark cycle (0700-1900) at 68-74° F., and 30-70% humidity. They were allowed continually to access water and regular rodent Purina 5001 diet (ScottPharma, MA) ad libitum and to acclimate in the facility for 5 days. Animal handling and procedures were conducted under the protocols and/or guidelines approved by the Institutional Animal Care and Use Committee (IACUC) of […] Biosciences, Inc. […] Also, 2× drug vehicle (3% CMC+0.4% Tween-20) was prepared and stored at 4° C. for a week. On the day of injection, 1 ml frozen 2× aqueous stock solution (20 mg/ml drug solution) aliquot is thawed and mix with another 1 ml 2× drug vehicle (3% Carboxymethyl cellulose+0.4% Tween 20) to prepare 10 mg/ml drug solution. A 25 g mouse would receive 250 μl of 10 mg/ml solution for a dose of 100 mg/kg. Lower concentrations can be achieved by further diluting the 10 mg/ml in 1× vehicle solution with 1× vehicle prepared with milliQ water. On each dosing day, both compound stocks and 2× vehicle were warmed to room temperature and was mixed at 1:1 ratio, given to a concentration of 10 mg/mL. Then 1: 5-fold dilutions were obtained with 1× vehicle to 2 mg/mL. Dosing volume at 10 mL/kg (final dosage: 20 mg/kg) in the morning. […] Study Design. In each group 4 male 6-7-week-old C57BL/6 mice were used. Doses were administered once daily via oral gavage for either a day (single dose arm, QD×1) or 4 consecutive days (repeated dose arm, QD×4) (FIG. 26). Blood, half of brain hemisphere, and one lobe of liver samples were collected from all animals of Day 1 (QD×1 arm) at pre-dose and 0.25, 2, 4, 8, 24 and 36 hours post dose, or Day 4 (QD×4 arm) at pre-dose and 0.25, 2, 4, 8, 24 and 48 hours post dose. Blood samples were collected by cardiac puncture. The blood samples were maintained in wet ice first and centrifuged to obtain plasma (2000×g, 4° C., 5 min). All three samples from each mouse were analyzed for either Compound I-1 or Compound I-32 contents by Integrated Analytical Solutions (Berkeley, Calif.) and the results were used for the generation of the pharmacokinetic graphs. Sample collection, storage, bioanalysis and statistical analysis. All plasma and tissue samples were analyzed by discovery grade bioanalytical method developed for estimation of each test compound in plasma and tissue samples using LC-MS/MS systems. Plasma samples were prepared as follows. Three volumes of acetonitrile containing internal standard was added to one volume of plasma to precipitate proteins. Samples were centrifuged (3000×g for 10 min) and supernatant removed for analysis by LC-MS/MS. Calibration standards and quality controls were made by preparation of a 1 mg/mL stock solution in MeOH and subsequently a series of working solutions in MeOH:water (1/1, v/v) which were spiked into blank plasma to yield a series of calibration standard samples in the range of 1.0 ng/mL to 10 μg/mL. All incurred PK/PD plasma samples were treated identically to the calibration standards and quality control samples. LC-MS/MS analysis was performed utilizing multiple reaction monitoring for detection of characteristic ions for each drug candidate, additional related analytes and internal standard. Tissue samples were prepared as follows, three volumes of PBS buffer (pH 7.4) were added to one volume of each tissue sample which was then homogenized to obtain each tissue homogenate sample. […]

Human ACC2 = molecular target: T1, Human ACC2 (Homo sapiens, UniProt O00763); test: ACC2 enzymatic assay (ADP-Glo); format: biochemical; settings: recombinant human ACC2 1 nM, 10 μM ATP, 10 μM acetyl CoA; Run 1-3; read-out: Compound IC50 (M) ACC2
T1 construct: FLAG (C); His (C); purchased BPS Biosciences 50201; host or cells: Baculovirus infected Sf9 cells
T1 sequence (O00763 whole entry): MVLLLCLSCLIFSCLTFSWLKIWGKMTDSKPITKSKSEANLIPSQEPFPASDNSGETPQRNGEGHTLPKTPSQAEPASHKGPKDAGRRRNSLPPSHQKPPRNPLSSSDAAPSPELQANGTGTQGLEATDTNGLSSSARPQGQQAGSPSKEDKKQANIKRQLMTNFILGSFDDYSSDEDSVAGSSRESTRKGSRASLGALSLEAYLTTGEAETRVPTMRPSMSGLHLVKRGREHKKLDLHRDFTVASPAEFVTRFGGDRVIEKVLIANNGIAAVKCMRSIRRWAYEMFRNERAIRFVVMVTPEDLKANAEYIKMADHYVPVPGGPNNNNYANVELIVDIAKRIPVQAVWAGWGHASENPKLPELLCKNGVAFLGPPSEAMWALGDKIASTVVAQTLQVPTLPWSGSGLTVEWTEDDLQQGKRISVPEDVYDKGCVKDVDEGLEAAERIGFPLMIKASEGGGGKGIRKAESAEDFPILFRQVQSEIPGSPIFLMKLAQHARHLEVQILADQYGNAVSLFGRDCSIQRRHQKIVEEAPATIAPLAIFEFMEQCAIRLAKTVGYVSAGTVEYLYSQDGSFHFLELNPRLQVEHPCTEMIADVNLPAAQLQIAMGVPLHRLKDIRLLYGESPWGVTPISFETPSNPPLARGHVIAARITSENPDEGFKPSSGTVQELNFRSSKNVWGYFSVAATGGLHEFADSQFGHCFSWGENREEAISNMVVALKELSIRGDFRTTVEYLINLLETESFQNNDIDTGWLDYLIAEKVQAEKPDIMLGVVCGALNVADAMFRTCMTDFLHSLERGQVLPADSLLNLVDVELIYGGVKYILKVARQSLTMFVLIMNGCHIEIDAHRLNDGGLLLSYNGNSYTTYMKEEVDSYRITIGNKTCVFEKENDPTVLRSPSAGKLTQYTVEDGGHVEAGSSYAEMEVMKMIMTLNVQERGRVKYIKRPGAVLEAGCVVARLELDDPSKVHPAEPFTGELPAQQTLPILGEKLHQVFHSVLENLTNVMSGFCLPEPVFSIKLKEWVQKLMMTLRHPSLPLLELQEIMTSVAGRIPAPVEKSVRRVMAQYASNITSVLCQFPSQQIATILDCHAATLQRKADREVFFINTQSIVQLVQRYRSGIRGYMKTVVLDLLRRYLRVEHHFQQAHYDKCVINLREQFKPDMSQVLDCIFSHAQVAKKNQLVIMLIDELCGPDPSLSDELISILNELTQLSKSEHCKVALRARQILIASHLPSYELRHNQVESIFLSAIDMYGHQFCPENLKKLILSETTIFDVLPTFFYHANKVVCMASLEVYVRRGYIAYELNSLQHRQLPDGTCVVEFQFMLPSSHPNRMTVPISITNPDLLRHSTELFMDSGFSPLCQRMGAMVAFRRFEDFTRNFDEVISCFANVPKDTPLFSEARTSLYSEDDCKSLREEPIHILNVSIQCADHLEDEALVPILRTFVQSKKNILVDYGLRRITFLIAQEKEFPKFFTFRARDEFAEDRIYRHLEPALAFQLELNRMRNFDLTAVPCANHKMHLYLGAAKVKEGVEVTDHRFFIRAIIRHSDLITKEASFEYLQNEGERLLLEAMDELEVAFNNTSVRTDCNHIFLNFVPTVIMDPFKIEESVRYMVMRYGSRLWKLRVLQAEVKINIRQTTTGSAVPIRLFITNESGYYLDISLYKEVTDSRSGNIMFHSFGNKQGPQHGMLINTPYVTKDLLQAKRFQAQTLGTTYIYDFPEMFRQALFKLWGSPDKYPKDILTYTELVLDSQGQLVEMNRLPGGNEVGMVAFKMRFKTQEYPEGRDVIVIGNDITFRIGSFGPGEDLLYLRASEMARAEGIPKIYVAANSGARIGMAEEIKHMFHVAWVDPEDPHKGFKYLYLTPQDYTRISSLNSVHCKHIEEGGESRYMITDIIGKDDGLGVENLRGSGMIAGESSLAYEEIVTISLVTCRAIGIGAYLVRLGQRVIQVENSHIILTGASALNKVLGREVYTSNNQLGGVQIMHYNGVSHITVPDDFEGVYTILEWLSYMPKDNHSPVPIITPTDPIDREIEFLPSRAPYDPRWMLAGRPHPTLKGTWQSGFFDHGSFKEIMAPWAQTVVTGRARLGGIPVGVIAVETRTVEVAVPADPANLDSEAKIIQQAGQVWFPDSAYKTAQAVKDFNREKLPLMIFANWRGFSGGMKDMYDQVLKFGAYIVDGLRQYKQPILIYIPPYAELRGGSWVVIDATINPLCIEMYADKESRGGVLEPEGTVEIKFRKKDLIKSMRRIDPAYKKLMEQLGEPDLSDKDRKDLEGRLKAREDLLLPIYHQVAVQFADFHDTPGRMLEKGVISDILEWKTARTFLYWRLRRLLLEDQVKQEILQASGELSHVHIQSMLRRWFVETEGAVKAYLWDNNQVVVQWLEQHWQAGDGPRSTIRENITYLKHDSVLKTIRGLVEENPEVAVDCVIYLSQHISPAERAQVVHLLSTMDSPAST
Protocol: Human ACC1 (Cat#50202 Lot #120830) and ACC2 (Cat #50201 Lot #160217) were obtained from BPS Biosciences, San Diego, Calif. 92121. Human ACC1 had C-terminal flag and His-tags with a MW of 270 KDa after purification from Baculovirus infected Sf9 cell expression system and came as a solution in 50 mM Tris-HCl, pH 8.0, 500 mM NaCl, 10% glycerol, 1 mM DTT, 100 μg/ml FLAG peptide with 70% purity. The stock concentration was 0.25 mg/ml corresponding to 0.926 μM. Human ACC2 was also purified from Baculovirus infected Sf9 expression system. […] The stock concentration was 0.1 mg/ml corresponding to 0.36 μM. The assay buffer for measuring the activity of ACC contained: 30 mM HEPES (pH 7.4), 2 mM MgCl2, 0.01% Brij35, 2 mM DTT, 1% DMSO (solvent for compound). For ACC1 and ACC2 assays, the following concentrations of substrate and cofactors were used: 12 mM NaHCO3, 10 μM acetyl CoA, 10 μM ATP, and 2 mM K-citrate. The recombinant human enzyme was used at 5 nM for ACC1 and 1 nM for ACC2. In brief, enzyme alone in the above buffer without substrate was used for background. All test materials were dissolved in 100% DMSO using acoustic technology (Echo550). The prepared solution was preincubated for 15 min followed by the addition of 5 μL/well of ADP standard. ATP was then added to start the reaction. The assay contents were spun and briefly shaken followed by incubation at room temperature for 1 h. At the end of completion of assay, 5 μL of ADP-Glo was added to each well to stop the reaction. The contents were mixed, spun and incubated at room temperature for 40 min followed by the addition of 10 μL/well of ADP detection reagent. The contents were spun, mixed and covered with plastic to measure luminescence. […] The light generated, measured in a luminometer, correlates to the amount of ADP generated in the ACC assay, which is indicative of ACC activity.
The enzyme concentrations for ACC1 and ACC2 were 5 nM and 1 nM, respectively.
Data represent nM or μM ADP produced, % Activity (relative to no inhibitor controls), and curve fits were performed by GraphPad Prism software. […]

[2] = male, C57BL/6, mouse brain, 20 mg/kg/day PO, repeat dose QD × 4
[3] = male, C57BL/6, mouse liver, 20 mg/kg PO, single dose QD × 1
[4] = male, C57BL/6, mouse liver, 20 mg/kg/day PO, repeat dose QD × 4
[5] = male, C57BL/6, mouse plasma, 20 mg/kg PO, single dose QD × 1
[6] = male, C57BL/6, mouse plasma, 20 mg/kg/day PO, repeat dose QD × 4
[7] = mouse brain, 20 mg/kg PO, single dose QD × 1
[8] = mouse brain, 20 mg/kg/day PO, repeat dose QD × 4
[9] = mouse liver, 20 mg/kg PO, single dose QD × 1
[10] = mouse liver, 20 mg/kg/day PO, repeat dose QD × 4

Row | Compound | Cmax [1, 2] [ng/g] | half-life [1, 3] [h] | half-life [1, 4] [h] | half-life [1, 5] [h] | half-life [1, 6] [h] | AUC0-t ([1]; mouse brain, 20 mg/kg PO, QD × 1, value in brackets with * (reanalysis)) | AUC0-t [1, 7] | AUC0-t ([1]; mouse brain, 20 mg/kg/day PO, QD × 4, value in brackets with * (reanalysis)) | AUC0-t [1, 8] | AUC0-t ([1]; mouse liver, 20 mg/kg PO, QD × 1, timepoint 0.25 h samples after reanalysis) | AUC0-t [1, 9] | AUC0-t ([1]; mouse liver, 20 mg/kg/day PO, QD × 4, timepoint 0.25 h samples after reanalysis) | AUC0-t [1, 10] | half-life ([1]; male, C57BL/6, mouse brain, 20 mg/kg PO, single dose QD × 1) [h] | half-life [1, 2] [h] | IC50 (Human ACC2)
1 | CC(C)(CCCCc1ccc(CCCCC(C)(C)C(=O)O)cc1)C(=O)O [Compound I-1, 6-[4-(5-carboxy-5-methylhexyl)-phenyl]-2,2-dimethylhexanoic acid] | 169 | 9.6 | 20.4 | 15.3 | 22 | (2,091)* h*ng/g | 1,183 h*ng/g | (3,995)* h*ng/g | 1,220 h*ng/g | (469,726)* h*ng/g | 425,184 h*ng/g | (718,455)* h*ng/g | 687,414 h*ng/g | – | – | –
2 | CC(C)(CCCCc1cccc(CCCCC(C)(C)C(=O)O)c1)C(=O)O [Compound I-32, 6-[3-(5-carboxy-5-methylhexyl)-phenyl]-2,2-dimethylhexanoic acid] | – | 13 | 16 | 9 | 9.2 | – | 1,527 h*ng/g | – | 6,304 h*ng/g | – | 405,934 h*ng/g | – | 1.01e+06 ng·h/g | 3 | 8 | –
3 | CC(C)(CCCCc1ccc(CCCCC(C)(C)C(=O)SCCNC(=O)CCNC(=O)[C@H](O)C(C)(C)COP(=O)(O)OP(=O)(O)OC[C@H]2O[C@@H](n3cnc4c(N)ncnc43)[C@H](O)[C@@H]2OP(=O)(O)O)cc1)C(=O)O [Compound I-1-CoA, 6-[4-(5-carboxy-5-methylhexyl)-phenyl]-2,2-dimethylhexanoic acid Coenzyme A ester] | – | – | – | – | – | – | – | – | – | – | – | – | – | – | – | 9.41e-06 M and 7.72e-06 M and 9.06e-06 M
4 | CC(C)(CCCCc1cccc(CCCCC(C)(C)C(=O)SCCNC(=O)CCNC(=O)[C@H](O)C(C)(C)COP(=O)(O)OP(=O)(O)OC[C@H]2O[C@@H](n3cnc4c(N)ncnc43)[C@H](O)[C@@H]2OP(=O)(O)O)c1)C(=O)O [Compound I-32-CoA, 6-[3-(5-Carboxy-5-methylhexyl)-phenyl]-2,2-dimethylhexanoic acid Coenzyme A Ester] | – | – | – | – | – | – | – | – | – | – | – | – | – | – | – | 5.02e-06 M and 4.22e-06 M and 3.33e-06 M
